# Measured values published in PMC7933434, “Entropy-driven binding of gut bacterial β-glucuronidase inhibitors ameliorates irinotecan-induced toxicity” (Communications Biology, 2021).
# “And” between values parts separate entries of the source, which are not always exact repeats. Equal values may be shown once. “Also recorded” adds a separate entry of the source.
# Columns and labels:
# HsGUS (human GUS) = molecular target: T1, HsGUS (human GUS) (Homo sapiens, UniProt P08236); assay: GUS inhibition assay, hydrolysis of 4-methylumbelliferyl-β-glucuronide, HsGUS; format: biochemical; parameters: GUS activity (hydrolysis rate of MUG): unit not given here
# T1 construct: HsGUS was prepared as described[37]; made in house
# T1 sequence (P08236 23-651): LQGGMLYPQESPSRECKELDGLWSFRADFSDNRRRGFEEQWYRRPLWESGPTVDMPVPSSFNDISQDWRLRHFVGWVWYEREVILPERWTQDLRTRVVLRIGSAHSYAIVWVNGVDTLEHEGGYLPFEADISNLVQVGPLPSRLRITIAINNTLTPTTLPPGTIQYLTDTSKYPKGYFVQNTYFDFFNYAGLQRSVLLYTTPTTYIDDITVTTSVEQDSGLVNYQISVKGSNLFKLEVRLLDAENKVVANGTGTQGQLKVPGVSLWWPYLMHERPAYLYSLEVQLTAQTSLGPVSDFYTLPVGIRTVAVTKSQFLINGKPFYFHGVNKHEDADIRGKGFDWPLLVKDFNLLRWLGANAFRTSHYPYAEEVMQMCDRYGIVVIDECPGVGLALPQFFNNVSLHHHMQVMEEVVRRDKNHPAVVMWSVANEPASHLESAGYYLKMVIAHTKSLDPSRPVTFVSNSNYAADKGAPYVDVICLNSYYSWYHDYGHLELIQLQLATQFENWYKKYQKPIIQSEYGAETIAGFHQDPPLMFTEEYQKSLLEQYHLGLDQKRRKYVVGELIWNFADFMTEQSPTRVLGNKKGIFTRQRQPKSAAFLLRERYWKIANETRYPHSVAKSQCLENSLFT
# BdGUS = BdGUS (Bifidobacterium dentium, UniProt D2Q7B1); assay: biochemical; format: binding; settings: BdGUS; Tris buffer (250 mM NaCl, 20 mM Tris, pH 8.0); 298 K
# Chain of BdGUS (D2Q7B1 entry or part of it): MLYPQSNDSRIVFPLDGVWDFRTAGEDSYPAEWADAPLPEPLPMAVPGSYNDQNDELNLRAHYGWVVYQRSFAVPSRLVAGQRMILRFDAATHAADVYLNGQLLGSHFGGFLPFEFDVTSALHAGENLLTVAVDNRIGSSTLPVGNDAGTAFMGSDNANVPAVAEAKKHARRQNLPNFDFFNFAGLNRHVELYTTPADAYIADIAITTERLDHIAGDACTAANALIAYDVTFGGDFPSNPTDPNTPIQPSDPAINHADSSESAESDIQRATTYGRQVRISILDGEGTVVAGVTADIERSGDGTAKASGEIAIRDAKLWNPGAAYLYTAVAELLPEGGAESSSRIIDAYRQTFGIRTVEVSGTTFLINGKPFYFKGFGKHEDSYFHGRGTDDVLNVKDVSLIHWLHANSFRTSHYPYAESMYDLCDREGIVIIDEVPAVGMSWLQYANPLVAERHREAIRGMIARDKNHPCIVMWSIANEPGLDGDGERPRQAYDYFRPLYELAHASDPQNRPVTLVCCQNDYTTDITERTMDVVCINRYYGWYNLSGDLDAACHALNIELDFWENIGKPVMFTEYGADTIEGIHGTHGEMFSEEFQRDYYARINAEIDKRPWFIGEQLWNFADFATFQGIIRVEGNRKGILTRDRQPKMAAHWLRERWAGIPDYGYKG
# [1] = tested on: H184B5F5/M10 non-cancerous human mammary epithelial cells; assay: In vitro cytotoxicity, [3H]thymidine incorporation, H184B5F5/M10; format: cell-based; settings: 0.001–100 μM for 24 h
# [2] = tested on: GM637 non-cancerous human fibroblasts; assay: In vitro cytotoxicity, [3H]thymidine incorporation, GM637; format: cell-based; settings: GM637 cells; 0.001–100 μM for 24 h
# BALB/c mice = assay: In vivo diarrhea test (CPT-11); parameters: species or system mouse; settings: BALB/c mice, 10 days
compound,measurement,setting,value
"CCCCCC[C@@H]1NC[C@@H](O)[C@H](O)[C@H]1C(=O)O [Inhibitor 3, C6-hexyl UIFG]",Ki,"HsGUS (human GUS); HsGUS, 50 mM sodium acetate pH 4.5, 37 °C",5.3 ± 0.9 µM
same,GUS activity (hydrolysis rate of MUG),"HsGUS (human GUS); [Inhibitor 3] =0.15625 μM, [MUG] 0.1 mM",771.278 and 806.238
same,GUS activity (hydrolysis rate of MUG),"HsGUS (human GUS); [Inhibitor 3] =0.15625 μM, [MUG] 0.2 mM",1372.81 and 1460.04
same,GUS activity (hydrolysis rate of MUG),"HsGUS (human GUS); [Inhibitor 3] =0.15625 μM, [MUG] 0.4 mM",2346.7 and 2406.16
same,GUS activity (hydrolysis rate of MUG),"HsGUS (human GUS); [Inhibitor 3] =0.15625 μM, [MUG] 0.6 mM",2899.99 and 3077.74
same,GUS activity (hydrolysis rate of MUG),"HsGUS (human GUS); [Inhibitor 3] =0.15625 μM, [MUG] 0.8 mM",3398.11 and 3693.06
same,GUS activity (hydrolysis rate of MUG),"HsGUS (human GUS); [Inhibitor 3] =0.15625 μM, [MUG] 1.2 mM",4234.64 and 3962.7
same,GUS activity (hydrolysis rate of MUG),"HsGUS (human GUS); [Inhibitor 3] =0.15625 μM, [MUG] 1.6 mM",4964.29 and 4569.67
same,GUS activity (hydrolysis rate of MUG),"HsGUS (human GUS); [Inhibitor 3] =0.15625 μM, [MUG] 2 mM",5606.01 and 4919.37
same,GUS activity (hydrolysis rate of MUG),"HsGUS (human GUS); [Inhibitor 3] =0.3125 μM, [MUG] 0.1 mM",857.043 and 831.938
same,GUS activity (hydrolysis rate of MUG),"HsGUS (human GUS); [Inhibitor 3] =0.3125 μM, [MUG] 0.2 mM",1433.02 and 1411.42
same,GUS activity (hydrolysis rate of MUG),"HsGUS (human GUS); [Inhibitor 3] =0.3125 μM, [MUG] 0.4 mM",2271.61 and 2263.8
same,GUS activity (hydrolysis rate of MUG),"HsGUS (human GUS); [Inhibitor 3] =0.3125 μM, [MUG] 0.6 mM",2953.53 and 2923.55
same,GUS activity (hydrolysis rate of MUG),"HsGUS (human GUS); [Inhibitor 3] =0.3125 μM, [MUG] 0.8 mM",3510.33 and 3469.47
same,GUS activity (hydrolysis rate of MUG),"HsGUS (human GUS); [Inhibitor 3] =0.3125 μM, [MUG] 1.2 mM",4268.51 and 4308.7
same,GUS activity (hydrolysis rate of MUG),"HsGUS (human GUS); [Inhibitor 3] =0.3125 μM, [MUG] 1.6 mM",4927.41 and 4670.47
same,GUS activity (hydrolysis rate of MUG),"HsGUS (human GUS); [Inhibitor 3] =0.3125 μM, [MUG] 2 mM",5186.78 and 5296.26
same,GUS activity (hydrolysis rate of MUG),"HsGUS (human GUS); [Inhibitor 3] =0.625 μM, [MUG] 0.1 mM",778.258 and 858.783
same,GUS activity (hydrolysis rate of MUG),"HsGUS (human GUS); [Inhibitor 3] =0.625 μM, [MUG] 0.2 mM",1379.09 and 1422.22
same,GUS activity (hydrolysis rate of MUG),"HsGUS (human GUS); [Inhibitor 3] =0.625 μM, [MUG] 0.4 mM",2137.64 and 2310.12
same,GUS activity (hydrolysis rate of MUG),"HsGUS (human GUS); [Inhibitor 3] =0.625 μM, [MUG] 0.6 mM",2842.46 and 2976.65
same,GUS activity (hydrolysis rate of MUG),"HsGUS (human GUS); [Inhibitor 3] =0.625 μM, [MUG] 0.8 mM",3348.75 and 3351.68
same,GUS activity (hydrolysis rate of MUG),"HsGUS (human GUS); [Inhibitor 3] =0.625 μM, [MUG] 1.2 mM",4293.66 and 3890.63
same,GUS activity (hydrolysis rate of MUG),"HsGUS (human GUS); [Inhibitor 3] =0.625 μM, [MUG] 1.6 mM",4573.95 and 4600.88
same,GUS activity (hydrolysis rate of MUG),"HsGUS (human GUS); [Inhibitor 3] =0.625 μM, [MUG] 2 mM",5372.6 and 4990.92
same,GUS activity (hydrolysis rate of MUG),"HsGUS (human GUS); [Inhibitor 3] =1.25 μM, [MUG] 0.1 mM",717.04 and 716.519
same,GUS activity (hydrolysis rate of MUG),"HsGUS (human GUS); [Inhibitor 3] =1.25 μM, [MUG] 0.2 mM",1240.56 and 1222.88
same,GUS activity (hydrolysis rate of MUG),"HsGUS (human GUS); [Inhibitor 3] =1.25 μM, [MUG] 0.4 mM",2023.29 and 2076.53
same,GUS activity (hydrolysis rate of MUG),"HsGUS (human GUS); [Inhibitor 3] =1.25 μM, [MUG] 0.6 mM",2757.57 and 2739.69
same,GUS activity (hydrolysis rate of MUG),"HsGUS (human GUS); [Inhibitor 3] =1.25 μM, [MUG] 0.8 mM",3062.28 and 3123.61
same,GUS activity (hydrolysis rate of MUG),"HsGUS (human GUS); [Inhibitor 3] =1.25 μM, [MUG] 1.2 mM",3822.55 and 3852.43
same,GUS activity (hydrolysis rate of MUG),"HsGUS (human GUS); [Inhibitor 3] =1.25 μM, [MUG] 1.6 mM",4324.26 and 4371.34
same,GUS activity (hydrolysis rate of MUG),"HsGUS (human GUS); [Inhibitor 3] =1.25 μM, [MUG] 2 mM",5149.01 and 5020.2
same,GUS activity (hydrolysis rate of MUG),"HsGUS (human GUS); [Inhibitor 3] =2.5 μM, [MUG] 0.1 mM",605.275 and 587.992
same,GUS activity (hydrolysis rate of MUG),"HsGUS (human GUS); [Inhibitor 3] =2.5 μM, [MUG] 0.2 mM",1017.03 and 1026.81
same,GUS activity (hydrolysis rate of MUG),"HsGUS (human GUS); [Inhibitor 3] =2.5 μM, [MUG] 0.4 mM",1798.51 and 1698.98
same,GUS activity (hydrolysis rate of MUG),"HsGUS (human GUS); [Inhibitor 3] =2.5 μM, [MUG] 0.6 mM",2384.66 and 2417.17
same,GUS activity (hydrolysis rate of MUG),"HsGUS (human GUS); [Inhibitor 3] =2.5 μM, [MUG] 0.8 mM",2879.78 and 2802.26
same,GUS activity (hydrolysis rate of MUG),"HsGUS (human GUS); [Inhibitor 3] =2.5 μM, [MUG] 1.2 mM",3545.79 and 3649.82
same,GUS activity (hydrolysis rate of MUG),"HsGUS (human GUS); [Inhibitor 3] =2.5 μM, [MUG] 1.6 mM",4144.07 and 4075.98
same,GUS activity (hydrolysis rate of MUG),"HsGUS (human GUS); [Inhibitor 3] =2.5 μM, [MUG] 2 mM",4744.38 and 4849.33
same,GUS activity (hydrolysis rate of MUG),"HsGUS (human GUS); [Inhibitor 3] =3.75 μM, [MUG] 0.1 mM",572.514 and 563.082
same,GUS activity (hydrolysis rate of MUG),"HsGUS (human GUS); [Inhibitor 3] =3.75 μM, [MUG] 0.2 mM",956.564 and 935.374
same,GUS activity (hydrolysis rate of MUG),"HsGUS (human GUS); [Inhibitor 3] =3.75 μM, [MUG] 0.4 mM",1708.56 and 1611.49
same,GUS activity (hydrolysis rate of MUG),"HsGUS (human GUS); [Inhibitor 3] =3.75 μM, [MUG] 0.6 mM",2310.6 and 2247.59
same,GUS activity (hydrolysis rate of MUG),"HsGUS (human GUS); [Inhibitor 3] =3.75 μM, [MUG] 0.8 mM",2878.65 and 2643.42
same,GUS activity (hydrolysis rate of MUG),"HsGUS (human GUS); [Inhibitor 3] =3.75 μM, [MUG] 1.2 mM",3484.96 and 3524
same,GUS activity (hydrolysis rate of MUG),"HsGUS (human GUS); [Inhibitor 3] =3.75 μM, [MUG] 1.6 mM",3945.8 and 4134.14
same,GUS activity (hydrolysis rate of MUG),"HsGUS (human GUS); [Inhibitor 3] =3.75 μM, [MUG] 2 mM",4453.48 and 4566.78
same,ΔH,BdGUS,Essentially no enthalpy change was evident
same,cytotoxicity,[1],No cytotoxicity was evident
same,cytotoxicity,[2],No cytotoxicity was evident
same,diarrhea,BALB/c mice; CPT-11 30 mg per kg daily with inhibitor 3 5.8 µg orally twice per day,diarrhea was significantly suppressed; also recorded: significantly reduced diarrhea
same,diarrhea,"BALB/c mice; inhibitor 3 only, 5.8 µg given orally twice per day",neither the negative control nor inhibitor 3 caused diarrhea
